According to ChEMBL document CHEMBL4842340, “Development of Cagrilintide, a Long-Acting Amylin Analogue” (J Med Chem, 2021):
Values after ≈ are worked out from the molar mass of the structure shown. *1 amine or outer side, *2 acyl side, *3 side chain or, on linkers, in order; H or OH if unused. Where a SMILES comes first, the peptide text is derived from it. Bridges are numbered along the chain shown (N, C = ends). [ ]: non-standard residue; d: D form. The star is where a group is joined. C20 diacid = O=C(O)CCCCCCCCCCCCCCCCCCC(=O)*; γGlu = O=C(O)[C@H](CCC(=O)[*:2])N[*:1]; AEEA = NCCOCCOCC(=O)O

Columns and labels:
Rattus norvegicus [1] = assay: Reduction in food intake in Sprague-Dawley rat at 3 nmol/kg, sc administered as single dose measured upto 24 hrs relative to control; format: functional; design: scale not given: the % may be the effect or the level left; conditions: time hrs <=24
[2] = Solubility of the compound in bis-tris propane at pH 8 by UPLC analysis; format: physicochemical; conditions: bis-tris propane buffer
[3] = Solubility of the compound in lactate at pH 5 by UPLC analysis; format: physicochemical; conditions: lactate buffer
[4] = Solubility of the compound in bis-tris propane at pH 6 by UPLC analysis; format: physicochemical; conditions: bis-tris propane buffer
[5] = Agonist activity at human AMY3R (CT+RAMP3) expressed in Hollex1 cells incubated for 3 hrs by luminescence assay; format: cell-based; conditions: Hollex1, 3 h
Homo sapiens [6] = species: Homo sapiens; assay: Ratio of IC50 for displacement of [125I]-calcitonin from human calcitonin receptor expressed in tk-ts 13 cells to IC50 for displacement of [125I]-amylin from human AMY3R (CTR+RAMP3) expressed in BHK-13 cells; format: cell-based
[7] = Displacement of [125I]-calcitonin from rat calcitonin receptor expressed in tk-ts 13 cells measured after 120 mins by scintillation proximity assay; format: cell-based; conditions: tk-ts13
[8] = Agonist activity at rat AMY3R (CT+RAMP3) expressed in tk-ts13 cells assessed as increase in intracellular cAMP level incuabted for 25 mins by CRE luciferase reporter gene assay; format: cell-based; conditions: tk-ts13, 25 min
[9] = Displacement of [125I]-amylin from rat AMY3R (CTR+RAMP3) expressed in BHK-13 cells measured after 120 mins by scintillation proximity assay; format: cell-based
[10] = Solubility of the compound in lactate at pH 3 by UPLC analysis; format: physicochemical; conditions: lactate buffer
[11] = Solubility of the compound in bis-tris propane at pH 7.5 by UPLC analysis; format: physicochemical; conditions: bis-tris propane buffer
Rattus norvegicus [12] = species: Rattus norvegicus; assay: Ratio of IC50 for displacement of [125I]-calcitonin from rat calcitonin receptor expressed in tk-ts 13 cells to IC50 for displacement of [125I]-amylin from rat AMY3R (CTR+RAMP3) expressed in BHK-13 cells; format: cell-based
Rattus norvegicus [13] = species: Rattus norvegicus; assay: Ratio of EC50 for rat calcitonin receptor expressed in BHK-13 cells to EC50 for rat AMY3R (CT+RAMP3) expressed in tk-ts13 cells; format: cell-based
Insulin (Homo sapiens) [14] = target: Insulin (Homo sapiens) (UniProt P01308); assay: Effect on insulin (unknown origin) amyloid fibril formation assessed as lag time in glycyl-glycine buffer at pH 4 measured after 45 hrs by thioflavin-T fluorescence assay
[15] = Agonist activity at rat calcitonin receptor expressed in BHK-13 cells assessed as increase in intracellular cAMP concentration incubated for 25 mins by CRE luciferase reporter gene assay; format: cell-based; conditions: BHK-13, 25 min
Homo sapiens [16] = species: Homo sapiens; assay: Ratio of EC50 for human calcitonin receptor expressed in BHK570 cells to EC50 for human AMY3R (CT+RAMP3) expressed in Hollex1 cells; format: cell-based
[17] = Displacement of [125I]-amylin from human AMY3R (CTR+RAMP3) expressed in BHK-13 cells measured after 120 mins by scintillation proximity assay; format: cell-based
Rattus norvegicus [18] = assay: Reduction in food intake in Sprague-Dawley rat at 3 nmol/kg, sc administered as single dose measured after 24 to 48 hrs relative to control; format: functional; design: scale not given: the % may be the effect or the level left; conditions: time 24-48 hrs
[19] = Displacement of [125I]-calcitonin from human calcitonin receptor expressed in tk-ts 13 cells measured after 120 mins by scintillation proximity assay; format: cell-based; conditions: tk-ts13
[20] = Solubility of the compound in lactate at pH 4 by UPLC analysis; format: physicochemical; conditions: lactate buffer
Insulin (Homo sapiens) [21] = target: Insulin (Homo sapiens) (UniProt P01308); assay: Effect on insulin (unknown origin) amyloid fibril formation assessed as peptide recovery in glycyl-glycine buffer at pH 4 measured after 45 hrs by thioflavin-T fluorescence assay relative to control; design: concentration or dose not given beside the values
[22] = Agonist activity at human calcitonin receptor expressed in BHK570 cells assessed as increase in intracellular cAMP concentration incubated for 3 hrs in absence of albumin by CRE luciferase reporter gene assay; format: cell-based; conditions: BHK570, 3 h
[23] = Solubility of the compound in bis-tris propane at pH 7 by UPLC analysis; format: physicochemical; conditions: bis-tris propane buffer
[24] = Solubility of the compound in bis-tris propane at pH 6.5 by UPLC analysis; format: physicochemical; conditions: bis-tris propane buffer

Insulin (Homo sapiens), sequence (P01308 whole entry): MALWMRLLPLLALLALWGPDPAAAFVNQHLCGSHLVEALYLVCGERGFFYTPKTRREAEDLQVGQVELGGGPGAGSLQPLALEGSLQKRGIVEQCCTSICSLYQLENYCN

solubility [2] | solubility [3] | solubility [4] | EC50 [5] | IC50 [7] | EC50 [8] | IC50 [9] | solubility [10] | TIME (Insulin (Homo sapiens) [14]) | EC50 [15] | IC50 [17] | IC50 [19] | solubility [20] | Activity (Insulin (Homo sapiens) [21]) | EC50 [22] | SMILES | Activity (Rattus norvegicus [1]) | Ratio IC50 (Homo sapiens [6]) | Ratio IC50 (Rattus norvegicus [12]) | Ratio EC50 (Homo sapiens [16]) | Activity (Rattus norvegicus [18]) | other results
200 µM (≈ 1020 µg/mL) | 200 µM (≈ 1020 µg/mL) | 200 µM (≈ 1020 µg/mL) | 0.078 nM | 0.156 nM | 0.132 nM | 0.03 nM | 200 µM (≈ 1020 µg/mL) | 45 h | 1.89 nM | 0.052 nM | 0.085 nM | 200 µM (≈ 1020 µg/mL) | 87% | 0.608 nM | CC[C@H](C)[C@H](NC(=O)[C@@H]1CCCN1C(=O)CNC(=O)[C@H](Cc1ccccc1)NC(=O)[C@H](CC(N)=O)NC(=O)[C@H](CC(N)=O)NC(=O)[C@H](CO)NC(=O)[C@H](CO)NC(=O)[C@H](CCCNC(=N)N)NC(=O)[C@H](Cc1cnc[nH]1)NC(=O)[C@H](CC(C)C)NC(=O)[C@H](Cc1ccccc1)NC(=O)[C@H](CCC(=O)O)NC(=O)[C@H](C)NC(=O)[C@H](CC(C)C)NC(=O)[C@H](CCCNC(=N)N)NC(=O)[C@H](CCC(N)=O)NC(=O)[C@@H](NC(=O)[C@H](C)NC(=O)[C@@H]1CSSC[C@H](NC(=O)[C@H](CCCCN)NC(=O)[C@@H](CCCNC(=N)N)NC(=O)[C@@H](CCCNC(=N)N)NC(=O)COCCOCCNC(=O)COCCOCCNC(=O)CC[C@H](NC(=O)CCCCCCCCCCCCCCCCCCC(=O)O)C(=O)O)C(=O)N[C@@H](CC(N)=O)C(=O)N[C@@H]([C@@H](C)O)C(=O)N[C@@H](C)C(=O)N[C@@H]([C@@H](C)O)C(=O)N1)[C@@H](C)O)C(=O)N[C@@H](CC(C)C)C(=O)N1CCC[C@H]1C(=O)N1CCC[C@H]1C(=O)N[C@H](C(=O)N[C@@H](CC(N)=O)C(=O)N[C@H](C(=O)NCC(=O)N[C@@H](CO)C(=O)N[C@@H](CC(N)=O)C(=O)N[C@H](C(=O)N[C@@H](Cc1ccc(O)cc1)C(N)=O)[C@@H](C)O)C(C)C)[C@@H](C)O ({C20 diacid-γGlu-AEEA-AEEA}-[dR][dR]KCNTATCATQRLAEFLHRSSNNFGPILPPTNVGSNTY-NH2; disulfide 4-9) | 24% | 2 | 5 | 8 | 0% | solubility [11]: 200 µM (≈ 1020 µg/mL); Ratio EC50 (Rattus norvegicus [13]): 14
– | 10 µM (≈ 44.5 µg/mL) | 1 µM (≈ 4.45 µg/mL) | 0.083 nM | 0.807 nM | – | 0.027 nM | 200 µM (≈ 889 µg/mL) | 5 h | – | 0.499 nM | 3.25 nM | 200 µM (≈ 889 µg/mL) | 2% | 0.125 nM | CC[C@H](C)[C@H](NC(=O)[C@@H]1CCCN1C(=O)CNC(=O)[C@H](Cc1ccccc1)NC(=O)[C@H](CC(N)=O)NC(=O)[C@H](CC(N)=O)NC(=O)[C@H](CO)NC(=O)[C@H](CO)NC(=O)[C@H](CCCNC(=N)N)NC(=O)[C@@H](NC(=O)[C@H](CC(C)C)NC(=O)[C@H](Cc1ccccc1)NC(=O)[C@H](CCC(=O)O)NC(=O)[C@H](C)NC(=O)[C@H](CC(C)C)NC(=O)[C@H](CCCNC(=N)N)NC(=O)[C@H](CCC(N)=O)NC(=O)[C@@H](NC(=O)[C@H](C)NC(=O)[C@@H]1CSSC[C@H](NC(=O)[C@H](Cc2cnc[nH]2)NC(=O)CC[C@H](NC(=O)CCCCCCCCCCCCCCCCCCC(=O)O)C(=O)O)C(=O)N[C@@H](CC(N)=O)C(=O)N[C@@H]([C@@H](C)O)C(=O)N[C@@H](C)C(=O)N[C@@H]([C@@H](C)O)C(=O)N1)[C@@H](C)O)C(C)C)C(=O)N[C@@H](CC(C)C)C(=O)N1CCC[C@H]1C(=O)N1CCC[C@H]1C(=O)N[C@H](C(=O)N[C@@H](CC(N)=O)C(=O)N[C@H](C(=O)NCC(=O)N[C@@H](CO)C(=O)N[C@@H](CC(N)=O)C(=O)N[C@H](C(=O)N[C@@H](Cc1ccc(O)cc1)C(N)=O)[C@@H](C)O)C(C)C)[C@@H](C)O ({C20 diacid-γGlu}-HCNTATCATQRLAEFLVRSSNNFGPILPPTNVGSNTY-NH2; disulfide 2-7) | 56% | 7 | 30 | 2 | 59% | solubility [23]: 10 µM (≈ 44.5 µg/mL); solubility [24]: 1 µM (≈ 4.45 µg/mL)
200 µM (≈ 920 µg/mL) | 200 µM (≈ 920 µg/mL) | – | 0.102 nM | 0.221 nM | 0.147 nM | 0.048 nM | 200 µM (≈ 920 µg/mL) | 30 h | 0.221 nM | 0.359 nM | 0.111 nM | 200 µM (≈ 920 µg/mL) | 9% | 0.165 nM | CC[C@H](C)[C@H](NC(=O)[C@@H]1CCCN1C(=O)CNC(=O)[C@H](Cc1ccccc1)NC(=O)[C@H](CC(N)=O)NC(=O)[C@H](CC(N)=O)NC(=O)[C@H](CO)NC(=O)[C@H](CO)NC(=O)[C@H](Cc1cnc[nH]1)NC(=O)[C@H](Cc1cnc[nH]1)NC(=O)[C@H](CC(C)C)NC(=O)[C@H](Cc1ccccc1)NC(=O)[C@H](CCC(=O)O)NC(=O)[C@H](C)NC(=O)[C@H](CC(C)C)NC(=O)[C@H](CCCNC(=N)N)NC(=O)[C@H](CCC(N)=O)NC(=O)[C@@H](NC(=O)[C@H](C)NC(=O)[C@@H]1CSSC[C@H](NC(=O)[C@H](Cc2cnc[nH]2)NC(=O)[C@H](Cc2cnc[nH]2)NC(=O)CC[C@H](NC(=O)CCCCCCCCCCCCCCCCCCC(=O)O)C(=O)O)C(=O)N[C@@H](CC(N)=O)C(=O)N[C@@H]([C@@H](C)O)C(=O)N[C@@H](C)C(=O)N[C@@H]([C@@H](C)O)C(=O)N1)[C@@H](C)O)C(=O)N[C@@H](CC(C)C)C(=O)N1CCC[C@H]1C(=O)N1CCC[C@H]1C(=O)N[C@H](C(=O)N[C@@H](CC(N)=O)C(=O)N[C@H](C(=O)NCC(=O)N[C@@H](CO)C(=O)N[C@@H](CC(N)=O)C(=O)N[C@H](C(=O)N[C@@H](Cc1ccc(O)cc1)C(N)=O)[C@@H](C)O)C(C)C)[C@@H](C)O ({C20 diacid-γGlu}-HHCNTATCATQRLAEFLHHSSNNFGPILPPTNVGSNTY-NH2; disulfide 3-8) | 40% | 0.3 | 5 | 2 | 22% | solubility [11]: 200 µM (≈ 920 µg/mL); Ratio EC50 (Rattus norvegicus [13]): 2
– | – | – | 0.002 nM | 0.03 nM | 0.001 nM | 0.028 nM | – | – | 0.0001 nM | – | 0.066 nM | – | – | 0.003 nM | CC(C)C[C@H](NC(=O)[C@H](CCCCN)NC(=O)CNC(=O)[C@H](CC(C)C)NC(=O)[C@@H](NC(=O)[C@@H]1CSSC[C@H](N)C(=O)N[C@@H](CO)C(=O)N[C@@H](CC(N)=O)C(=O)N[C@@H](CC(C)C)C(=O)N[C@@H](CO)C(=O)N[C@@H]([C@@H](C)O)C(=O)N1)C(C)C)C(=O)N[C@@H](CO)C(=O)N[C@@H](CCC(N)=O)C(=O)N[C@@H](CCC(=O)O)C(=O)N[C@@H](CC(C)C)C(=O)N[C@@H](Cc1c[nH]cn1)C(=O)N[C@@H](CCCCN)C(=O)N[C@@H](CC(C)C)C(=O)N[C@@H](CCC(N)=O)C(=O)N[C@H](C(=O)N[C@@H](Cc1ccc(O)cc1)C(=O)N1CCC[C@H]1C(=O)N[C@@H](CCCNC(=N)N)C(=O)N[C@H](C(=O)N[C@@H](CC(N)=O)C(=O)N[C@H](C(=O)NCC(=O)N[C@@H](CO)C(=O)NCC(=O)N[C@H](C(=O)N1CCC[C@H]1C(N)=O)[C@@H](C)O)[C@@H](C)O)[C@@H](C)O)[C@@H](C)O [CALCITONIN SALMON] | – | 1 | 1 | 2 | – | –
